Among the data in paper PMC3128364 (Journal of Clinical Biochemistry and Nutrition, 2011) are IC50 values, retold here.

In the test the target is T1, intestinal maltase.
T1 construct: gene Mgam; native, crude extract of rat intestinal acetone powder (Sigma)
Briefly: glucose release from maltose, glucose oxidase kit. To be noted: 37 mM maltose (70 µL), 0.1 M phosphate pH 6.9, 37 °C, 30 min. The format is biochemical, Rattus norvegicus.

As a reminder, the IC50 is the concentration that inhibits the measured activity by half. A lower IC50 goes with greater potency in that assay. Compound `C[C@@H]1O[C@@H](OC[C@H]2O[C@@H](Oc3cc4c(O)cc(O)cc4[o+]c3-c3ccc(O)c(O)c3)[C@H](O)[C@@H](O)[C@@H]2O)[C@H](O)[C@H](O)[C@H]1O` [C3R, cyanidin-3-rutinoside] returned an IC50 of 2320 µM.

`C[C@H]1O[C@H](O[C@H]2[C@H](O)[C@@H](O)[C@@H](O[C@H]3[C@H](O)[C@@H](O)C(O)O[C@@H]3CO)O[C@@H]2CO)[C@H](O)[C@@H](O)[C@@H]1N[C@H]1C=C(CO)[C@@H](O)[C@H](O)[C@H]1O` (some centres unmarked) [Acarbose] returned an IC50 of 2.7 ± 0.1 µM.
